The record followed here is ChEMBL document CHEMBL4052760, “Synthesis, antioxidant and antiproliferative activities of 1,3,4-thiadiazoles derived from phenolic acids” (Bioorg Med Chem Lett, 2017).

Activity calls are given as the source filed them. The calls are words filed in the database; no cut-off is given here.

Experiment [1] is described as follows: Antioxidant activity assessed as DPPH radical scavenging activity after 30 mins in absence of light. In kind it is functional. (The DPPH test is a chemical assay of radical scavenging.)
The test system of the next experiment is HeLa. Put plainly: Cytotoxicity against human HeLa cells after 72 hrs by MTT assay. In kind it is functional, cell-based.
The test system of experiment [2] is HL-60. The experiment can be described thus: Cytotoxicity against human HL60 cells after 72 hrs by MTT assay. The following applies: HL-60, 72 h. In kind it is functional, cell-based. (Tetrazolium dyes change colour on reduction, which living cells bring about.)
The test system of another experiment is A549. The experiment can be described thus: Cytotoxicity against human A549 cells after 72 hrs by MTT assay. Conditions: A549, 72 h. In kind it is functional, cell-based.
The test system of the next experiment is MRC5. The experiment can be described thus: Cytotoxicity against human MRC5 cells after 72 hrs by MTT assay. Format: cell-based. Conditions: MRC5, 72 h.
The test system of experiment [3] is HL-60. The experiment can be described thus: Downregulation of MMP9 in human HL60 cells assessed as decrease in mRNA expression levels at 6.5 uM after 24 hrs by RT-PCR analysis. Format: functional, cell-based.
The test system of experiment [4] is HL-60. The experiment can be described thus: Cell cycle arrest in human HL60 cells assessed as accumulation at subG1 phase at IC50 after 24 hrs by FACS analysis. In kind it is functional, cell-based. In general terms: Flow cytometry measures light scatter and fluorescence of single cells or particles in a stream.
The test system of experiment [5] is HL-60. The experiment can be described thus: Cytoprotective activity against H2O2-induced oxidative stress in human HL60 cells assessed as decrease in level of reactive oxygen species pretreated for 24 hrs at 6 uM followed by H2O2-stimulation for 30 mins by DCFH-DA staining-based FACS analysis. In kind it is functional, cell-based.
Experiment [6] has as its system HL-60. Put plainly: Cell cycle arrest in human HL60 cells assessed as accumulation at subG1 phase at 2 times IC50 after 24 hrs by FACS analysis. Format: functional, cell-based.
The test system of experiment [7] is HL-60. Put plainly: Induction of apoptosis in human HL60 cells assessed as chromatin condensation at 2 times IC50 measured after 24 hrs by acridine orange/ethidium bromide staining-based fluorescence microscopic method. Format: functional, cell-based.
The test system of experiment [8] is HL-60. Put plainly: Induction of apoptosis in human HL60 cells assessed as secondary necrosis at 2 times IC50 measured after 24 hrs by acridine orange/ethidium bromide staining-based fluorescence microscopic method. Format: functional, cell-based.
Experiment [9] concerns HL-60. The experiment can be described thus: Induction of apoptosis in human HL60 cells assessed as nuclear fragmentation at 2 times IC50 measured after 24 hrs by acridine orange/ethidium bromide staining-based fluorescence microscopic method. Format: functional, cell-based.
Experiment [10] has as its system HL-60. Put plainly: Induction of cell death in human HL60 cells assessed as decrease in percentage of cells in subG1 phase at 2 times IC50 pretreated for 72 hrs followed by caspase-3 inhibitor Z-DEVD-FMK addition measured after 24 hrs by propidium iodide-staining based FACS analysis. Format: functional.
The subject of experiment [11] is HL-60. The experiment can be described thus: Induction of cell death in human HL60 cells assessed as decrease in percentage of cells in subG1 phase at 2 times IC50 pretreated for 72 hrs followed by caspase-8 inhibitor Z-IETD-FMK addition measured after 24 hrs by propidium iodide-staining based FACS analysis. In kind it is functional.
The test system of experiment [12] is HL-60. The experiment can be described thus: Induction of cell death in human HL60 cells assessed as decrease in percentage of cells in subG1 phase at 2 times IC50 pretreated for 72 hrs followed by caspase-9 inhibitor Z-LEHD-FMK addition measured after 24 hrs by propidium iodide-staining based FACS analysis. In kind it is functional.
Experiment [13] concerns EA.hy 926. The experiment can be described thus: Antiangiogenic activity against human EAhy926 cells assessed as inhibition of capillary-like tube formation at 30 uM measured after 20 hrs by inverted phase contrast microscopic analysis. In kind it is functional, cell-based.
For experiment [14], the system named is HL-60. The experiment can be described thus: Downregulation of MMP2 in human HL60 cells assessed as decrease in mRNA expression levels at 6.5 uM after 24 hrs by RT-PCR analysis. Format: functional, cell-based.
Experiment [15] has as its system HL-60. Put plainly: Downregulation of MMP2 in human HL60 cells assessed as decrease in mRNA expression levels at 6 uM after 24 hrs by RT-PCR analysis. Format: functional, cell-based.
In experiment [16] the test system is HL-60. Put plainly: Downregulation of MMP9 in human HL60 cells assessed as decrease in mRNA expression levels at 6 uM after 24 hrs by RT-PCR analysis. In kind it is functional, cell-based.
Experiment [17] relates to HL-60. Put plainly: Downregulation of VEGFA in human HL60 cells assessed as decrease in mRNA expression levels at 6.5 uM after 24 hrs by RT-PCR analysis. In kind it is functional, cell-based.
Experiment [18] relates to HL-60. The experiment can be described thus: Downregulation of VEGFA in human HL60 cells assessed as decrease in mRNA expression levels at 6 uM after 24 hrs by RT-PCR analysis. Format: functional, cell-based.
Experiment [19] deals with HL-60. Put plainly: Cytoprotective activity against H2O2-induced oxidative stress in human HL60 cells assessed as decrease in level of reactive oxygen species pretreated for 24 hrs at 6.25 uM followed by H2O2-stimulation for 30 mins by DCFH-DA staining-based FACS analysis. In kind it is functional, cell-based.
Experiment [20] deals with EA.hy 926. Put plainly: Antiangiogenic activity against human EAhy926 cells assessed as inhibition of capillary-like tube formation at 50 uM measured after 20 hrs by inverted phase contrast microscopic analysis. Format: functional, cell-based.
In experiment [21] the test system is HL-60. Put plainly: Cytoprotective activity against H2O2-induced oxidative stress in human HL60 cells assessed as decrease in level of reactive oxygen species pretreated for 24 hrs at 6.5 uM followed by H2O2-stimulation for 30 mins by DCFH-DA staining-based FACS analysis. In kind it is functional, cell-based.

For orientation: IC50 means the midpoint of a concentration-inhibition curve. With `CC(=O)Nc1nnc(-c2ccc(O)c(O)c2)s1`, the concentration for half-maximal inhibition (IC50) in [1] amounted to 23.4 µM; in the experiment on HeLa it was 125 µM; with HL-60 [2], 42.5 µM; in the experiment on A549 it was 133 µM; with MRC5, 58.6 µM.

For the molecule `CC(Cc1ccc(O)c(O)c1)C(C)Cc1ccc(O)c(O)c1` (stereo not given) [NORDIHYDROGUAIARETIC ACID], the 50% inhibitory concentration (IC50) in experiment [1] amounted to 20.8 µM.

Consider `O=C(Nc1nnc(-c2cccc(O)c2O)s1)C12CC3CC(CC(C3)C1)C2`, for which the outcome in the experiment with HL-60 [3], in the experiment on HL-60 [12] and with HL-60 [16] was inactive. Also, the IC50 in experiment [1] worked out at 14.2 µM; in the experiment with HeLa it was 21.4 µM; in the experiment with HL-60 [2], 7.3 µM; in the experiment with A549 it was 12.8 µM; in the experiment on MRC5, 27.7 µM. Further, the outcome in the experiment with HL-60 [4], in the experiment with HL-60 [5], in the experiment with HL-60 [6], in the experiment on HL-60 [7], in the experiment on HL-60 [8] and in the experiment on HL-60 [9] was Active. Also, the outcome with HL-60 [10], in the experiment on HL-60 [11], in the experiment with EA.hy 926 [13], in the experiment with HL-60 [14], in the experiment on HL-60 [15] and with HL-60 [17] was Active. Also, the outcome in the experiment on HL-60 [18] was Active.

`O=C(Nc1nnc(-c2cccc(O)c2O)s1)C1CCCCC1`: the IC50 was determined as 19.9 µM in [1]; 91.6 µM with HeLa; 7.9 µM in the experiment with HL-60 [2]; 11 µM with A549; 70.3 µM with MRC5. Also, in the experiment with HL-60 [19], the outcome was Active.

For `O=C(Nc1nnc(-c2cccc(O)c2O)s1)c1ccc(Cl)cc1`, the outcome with HL-60 [3], in the experiment with HL-60 [12] and in the experiment with HL-60 [16] was inactive. Further, the IC50 in experiment [1] was 30.2 µM; with HeLa, 13 µM; in the experiment with HL-60 [2] it was 9.6 µM; in the experiment with A549, 9.5 µM; in the experiment with MRC5 it was 18.7 µM. Also, the result in the experiment with HL-60 [7], in the experiment with HL-60 [8], with HL-60 [9], with HL-60 [10], in the experiment on HL-60 [11] and in the experiment on EA.hy 926 [20] was Active. For the same molecule, the outcome with HL-60 [14], with HL-60 [15], in the experiment with HL-60 [17] and in the experiment on HL-60 [18] was Active.

Consider `O=C(COc1ccccc1)Nc1nnc(-c2ccc(O)c(O)c2)s1`, for which the half-maximal inhibitory concentration (IC50) in experiment [1] turned out to be 36.1 µM; in the experiment on HeLa, 51.3 µM; in the experiment on HL-60 [2], 17.4 µM; in the experiment on A549 it was 21.2 µM; with MRC5 it was 30.9 µM.

Take `O=C(COc1ccccc1)Nc1nnc(-c2cccc(O)c2O)s1`: the 50% inhibitory concentration (IC50) was determined as 16.6 µM in experiment [1]; 117 µM in the experiment on HeLa; 11.2 µM in the experiment with HL-60 [2]; 10.5 µM in the experiment with A549; 33.9 µM in the experiment with MRC5. Moreover, the outcome in the experiment on HL-60 [19] was Active.

For `O=C(Nc1nnc(-c2ccc(O)c(O)c2)s1)C1CCCCC1`, the concentration for half-maximal inhibition (IC50) in [1] came to 37.3 µM; in the experiment on HeLa it was 34.5 µM; with HL-60 [2], 8.8 µM; in the experiment on A549 it was 16.3 µM; with MRC5 it was 24 µM.

On to `O=C1O[C@H]([C@@H](O)CO)C(O)=C1O` [ASCORBIC ACID], for which the 50% inhibitory concentration (IC50) in experiment [1] turned out to be 38 µM.

For `O=C(Nc1nnc(-c2ccc(O)c(O)c2)s1)C12CC3CC(CC(C3)C1)C2`, the outcome in the experiment on HL-60 [3], in the experiment with HL-60 [12] and in the experiment with HL-60 [16] was inactive. The IC50 was found to be 17.9 µM in [1]; 16.1 µM in the experiment with HeLa; 7.4 µM in the experiment with HL-60 [2]; 13 µM with A549; 20.1 µM in the experiment with MRC5. Also, the result with HL-60 [21], with HL-60 [7], in the experiment with HL-60 [8], in the experiment with HL-60 [9], in the experiment on HL-60 [10] and in the experiment on HL-60 [11] was Active. In addition, the outcome in the experiment on EA.hy 926 [13], in the experiment on HL-60 [14], in the experiment with HL-60 [15], with HL-60 [17] and in the experiment with HL-60 [18] was Active.

For `O=C(Nc1nnc(-c2ccc(O)c(O)c2)s1)c1ccccc1`, the IC50 stood at 23.4 µM in experiment [1]; 23.3 µM with HeLa; 17.6 µM in the experiment with HL-60 [2]; 13 µM with A549; 27.4 µM with MRC5.

Consider `Cc1ccc(C(=O)Nc2nnc(-c3ccc(O)c(O)c3)s2)cc1`, for which the IC50 was determined as 34 µM in experiment [1]; 67.1 µM with HeLa; 10.5 µM with HL-60 [2]; 11.8 µM with A549; 27.1 µM in the experiment on MRC5.

`CC(=O)Nc1nnc(-c2cccc(O)c2O)s1`: the IC50 in [1] is 111 µM; in the experiment with HeLa, 177 µM; in the experiment with HL-60 [2] it was 49 µM; with A549, 200 µM; in the experiment with MRC5, 156 µM.

Consider `O=C(Cc1ccccc1)Nc1nnc(-c2cccc(O)c2O)s1`, for which the IC50 in experiment [1] worked out at 20.9 µM; in the experiment with HeLa it was 120 µM; in the experiment with HL-60 [2], 13.9 µM; in the experiment with A549 it was 11.8 µM; with MRC5 it was 45.3 µM.

Take `O=C(Nc1nnc(-c2ccc(O)c(O)c2)s1)c1ccc(Cl)cc1`: the concentration for half-maximal inhibition (IC50) in experiment [1] was 53 µM; with HeLa it was 47.3 µM; with HL-60 [2], 14.7 µM; in the experiment on A549, 14.6 µM; in the experiment on MRC5, 30.6 µM.

For `O=C(Cc1ccccc1)Nc1nnc(-c2ccc(O)c(O)c2)s1`, the IC50 in experiment [1] is 21.3 µM; in the experiment with HeLa, 88.6 µM; in the experiment with HL-60 [2] it was 12 µM; with A549 it was 15.4 µM; with MRC5, 30.7 µM.

Regarding `O=C(Nc1nnc(-c2cccc(O)c2O)s1)c1ccccc1`, the IC50 stood at 22.3 µM in experiment [1]; 21.8 µM in the experiment on HeLa; 20.7 µM in the experiment with HL-60 [2]; 12.3 µM with A549; 23.2 µM in the experiment with MRC5.

As for `Cc1ccc(C(=O)Nc2nnc(-c3cccc(O)c3O)s2)cc1`, the outcome in the experiment on HL-60 [3], in the experiment on HL-60 [12] and in the experiment with HL-60 [16] was inactive. Besides, the concentration for half-maximal inhibition (IC50) in [1] amounted to 27.1 µM; in the experiment with HeLa, 13.4 µM; with HL-60 [2], 10.6 µM; with A549 it was 11.3 µM; in the experiment with MRC5 it was 33.2 µM. Besides, the result in the experiment on HL-60 [7], in the experiment on HL-60 [8], in the experiment on HL-60 [9], in the experiment with HL-60 [10], with HL-60 [11] and in the experiment with EA.hy 926 [20] was Active. Also, the outcome with HL-60 [14], with HL-60 [15], in the experiment on HL-60 [17] and with HL-60 [18] was Active.
